Measured values reported in PubChem BioAssay (NCI).
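Where inhibition never reached the appropriate level, the endpoint shown equals the highest concentration tested. Otherwise, values were interpolated linearly from a five-concentration, 48-hour dose response in 96-well plates. The concentration for 50% growth inhibition is given as GI50. TGI denotes the concentration required for complete inhibition of growth.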

Legend:
Assay in all cases: NCI anticancer screen, dose series, 48 h
[1] = test system: EKVX NSCLC
[2] = test system: MDA-MB-231 breast
[3] = test system: NCI-H522 lung
[4] = test system: OVCAR-3 ovarian
[5] = test system: OVCAR-4 ovarian
[6] = test system: SF-268 CNS
[7] = test system: SF-539 CNS
[8] = test system: U251 CNS
[9] = test system: UACC-257 melanoma
[10] = test system: K-562 leukemia

| Structure (SMILES) | TGI [1] [µM] | TGI [2] [µM] | TGI [3] [µM] | TGI [4] [µM] | TGI [5] [µM] | TGI [6] [µM] | TGI [7] [µM] | TGI [8] [µM] | TGI [9] [µM] | TGI [10] [µM] | GI50 [10] [µM] | GI50 [2] [µM] | GI50 [3] [µM] | GI50 [4] [µM] | GI50 [5] [µM] | GI50 [6] [µM] | GI50 [7] [µM] | GI50 [8] [µM] | GI50 [9] [µM] |
| --- | --- | --- | --- | --- | --- | --- | --- | --- | --- | --- | --- | --- | --- | --- | --- | --- | --- | --- | --- |
| COc1cc2c(cc1C1COc3cc4occc4cc3C1=O)OCO2 (centres undefined) | > 100 | > 100 | > 100 | > 100 | 36.5 | > 100 | > 100 | > 100 | > 100 |  |  |  |  |  |  |  |  |  |  |
| Cc1ccc2c(C3Cc4ccccc4N3C(=O)/C=C\C(=O)O)c(C)[nH]c2c1 (centres undefined) | > 100 |  | 48.6 | 66.8 | > 100 |  | > 100 | > 100 | > 100 | 73 |  |  |  |  |  |  |  |  |  |
| O=C1/C(=C/c2ccccc2[N+](=O)[O-])Cc2ccccc21 |  | 6.2 | 3.13 | 3.2 | 29.4 | 29.6 | 5.94 | 10.6 | 4.35 | > 100 | 3.4 | 1.7 | 1.7 | 1.72 | 2.95 | 3.1 | 2.15 | 2.89 | 1.83 |
| COc1ccc(-c2cc(Cc3cccs3)c(=O)[nH]n2)cc1 | > 100 |  |  | > 100 |  | > 100 | > 100 | > 100 | > 100 |  |  |  |  |  |  |  |  |  |  |
| COC(=O)C1(C)CCc2c(OC)ccc(OC)c2C1=O (centres undefined) | > 100 |  | > 100 | > 100 | > 100 | > 100 | > 100 | > 100 | > 100 | > 100 |  |  |  |  |  |  |  |  |  |
| CCOC(=O)C1C(=S)NC(=O)C1C#N (centres undefined) | > 100 |  | > 100 | > 100 | > 100 | > 100 | > 100 | > 100 | > 100 | > 100 |  |  |  |  |  |  |  |  |  |
| CCC(=O)C12OC3OC(C)(C)OC3C1OC(C)(C)O2 (centres undefined) | > 100 |  | > 100 | > 100 | > 100 | > 100 | > 100 | > 100 | > 100 | > 100 |  |  |  |  |  |  |  |  |  |
| CCN(CC)CC1c2ccccc2C(CNc2ccccc2)N1C (centres undefined) | > 100 |  | > 100 | > 100 | > 100 | > 100 |  |  | > 100 | > 100 |  |  |  |  |  |  |  |  |  |
| Cc1ccc(-c2nnc(-c3nn(-c4ccccc4)c4nc5ccccc5nc34)o2)cc1 | > 100 |  | 48.7 | 28.7 | 8.79 | 38.4 | 9.62 | 59.1 | > 100 | 61.9 |  |  |  |  |  |  |  |  |  |
| N#CC(C#N)=C1NC(=O)CC(=O)N1 | > 100 |  | > 100 | > 100 | > 100 | > 100 | > 100 | > 100 | > 100 | > 100 |  |  |  |  |  |  |  |  |  |
| COc1cc(C(=O)C/C(CCC(=O)Nc2ccccc2[N+](=O)[O-])=N\NC(N)=O)ccc1O | > 100 |  | > 100 | > 100 |  | > 100 | > 100 | > 100 | > 100 | > 100 |  |  |  |  |  |  |  |  |  |
| C#C[C@]1(O)CCCC2=CC(=O)CC[C@@]21C | > 100 |  | > 100 | > 100 |  | > 100 | > 100 | > 100 | > 100 | > 100 |  |  |  |  |  |  |  |  |  |
